The text below walks through data of publication PMC7696185, “Synthesis of New 1, 3, 4-Oxadiazole-Incorporated 1, 2, 3-Triazole Moieties as Potential Anticancer Agents Targeting Thymidylate Synthase and Their Docking Studies” (Pharmaceuticals, 2020).

Like-named read-outs stand apart in the source and are kept apart here. Some results are limits rather than exact numbers.

One series concerns MCF-7 cells. In words: MTT cytotoxicity assay, MCF-7. It counts as cell-based, human. The note with it: for IC50: Homo sapiens, MCF7, breast cancer MCF-7, MTT, 72 h. The procedure: (§1) These compounds were tested against breast MCF-7 and colorectal HCT-116 cell lines.
The human breast cancer cell line (MCF-7) used in the present study was obtained from Dr. Neamatallah’s lab. The cells were cultured in Dulbecco’s Modified Eagle Medium (DMEM) supplemented with 10% (v/v) fetal bovine serum (FBS), 10,000 units/mL penicillin/streptomycin, and 1% (v/v) L-glutamine at 37 °C in humidified 5% CO2 incubator.
(§2) The cytotoxicity activity was done by MTT assay. Breast MCF-7 and colorectal HCT-116 cancer cells were added at 1 × 10^5 cells/mL into a 96-well plate with three replicates, and incubated overnight for attachment at 37 °C in a 5% CO2 humidified atmosphere. Drug concentrations at six serial dilutions (100.0, 50.0, 10.0, 1.0, 0.5, and 0.1 μM) were added in triplicate and incubated at 37 °C and 5% CO2 for 72 h. Drugs were dissolved in 0.1% DMSO as a vehicle. Untreated cells were used as control. […] Thereafter, each well for each time point was removed and replaced with […] of full medium containing 10% 3-(4,5- dimethylthiaxolyl-2)-2,5-diphenyltetrazoliumbromide (MTT) (10 mg/mL). Then the media was removed and 100 µl of DMSO was added, and cells were incubated for a further 5 mins at 37 °C and 5% CO2. Plates were quantified using the SpectraMax M3 plate reader at 570 nm. The percentage inhibition was calculated as 100 − ((mean OD of treated cell × 100)/Mean OD of vehicle treated cells (DMSO)). All the experiments were repeated in at least three independent experiments (Table 2, Figure 3, Figure 4, Figure 5 and Figure 6).

For a further series, the system named is HCT-116 cells. In words: MTT cytotoxicity assay, HCT-116. The format is cell-based, human. As to conditions: for IC50: colorectal cancer HCT-116, MTT, 72 h; for fold activity compared to 5-fluorouracil, HCT-116 / fold activity compared to tamoxifen, HCT-116: ratio of IC50, HCT-116. The procedure: as §1, §2
In general terms: Tetrazolium assays rely on reduction of a dye to a coloured formazan, in cell work by metabolically active cells.

The target in series [1] is thymidylate synthase (TS) (Homo sapiens, UniProt P04818). In words: In vitro thymidylate synthase enzyme assay. It counts as biochemical. The note with it: for fold activity compared to pemetrexed, TS: ratio of IC50, TS enzyme. The procedure:
The inhibition of this enzyme plays a vital role in chemotherapy treatment. […] This inactivation of dTMP results in a reduction of deoxythymidine triphosphate (dTTP), leading to the disruption of DNA synthesis and cessation of cell growth and proliferation (Figure 7).
A thymidylate synthase enzymatic assay was carried out according to the reported method. It involves a mixture containing 2-mercaptoethanol (0.1 M), (6R,S)-tetrahydrofolate (0.0003 M), formaldehyde (0.012 M), MgCl2 (0.02 M), dUMP (0.001 M), TrisHCl (0.04 M), and NaEDTA (0.00075 M).This assay was done spectrophotometrically at 30° C and pH 7.4. The reaction was initiated by the addition of an amount of enzyme, giving a change in absorbance at 340 nm of 0.016/min in the absence of inhibitor. The percent inhibition was determined at a minimum of four inhibitor concentrations within 20% of the 50% point.

A further series relates to HEK 293 cells. In words: MTT assay on non-tumorigenic cell line HEK 293. The format is cell-based. The note with it: HEK293, normal human embryonic kidney cells.
Setting [2] is: spectrophotometric, 340 nm, 30 °C, pH 7.4, read-out: IC50 thymidylate synthase.

Chain of thymidylate synthase (TS) (P04818 whole entry): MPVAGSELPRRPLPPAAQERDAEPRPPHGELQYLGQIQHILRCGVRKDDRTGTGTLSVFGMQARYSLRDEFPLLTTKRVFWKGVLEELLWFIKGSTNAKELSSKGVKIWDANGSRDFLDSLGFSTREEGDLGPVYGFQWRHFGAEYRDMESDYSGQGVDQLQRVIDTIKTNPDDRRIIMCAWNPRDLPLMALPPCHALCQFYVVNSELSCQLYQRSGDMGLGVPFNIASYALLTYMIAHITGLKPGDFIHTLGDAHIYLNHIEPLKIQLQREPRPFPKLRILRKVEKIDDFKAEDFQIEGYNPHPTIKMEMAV

One may read the IC50 as the concentration that inhibits the measured activity by half. `O=c1[nH]cc(F)c(=O)[nH]1` [Compound 5-FU, 5-fluorouracil, reference compound]: the IC50 worked out at 24.7 µM with MCF-7 cells and 32.7 µM in the series on HCT-116 cells (Homo sapiens, HCT-116, 72 h).
The like results for `Cc1ccc(-n2cc(CSc3nnc(-c4ccccc4)o3)nn2)cc1` [Compound 6, 4-((5-phenyl–1,3,4-oxadiazol–2-ylthio)methyl)-1-p-tolyl–1H-1,2,3-triazole] were, in that order, 79.8 µM and 89.2 µM.
As to `Cc1ccccc1-n1cc(CSc2nnc(-c3ccccc3)o2)nn1` [Compound 7, 4-((5-phenyl–1,3,4-oxadiazol-2-ylthio)methyl)–1-o-tolyl-1H–1,2,3-triazole], the IC50 with MCF-7 cells amounted to 30.7 µM; in the series with HCT-116 cells (Homo sapiens, HCT-116, 72 h), 34.3 µM.
The melting point is the temperature of the solid-liquid transition. Compound `Clc1ccccc1-n1cc(CSc2nnc(-c3ccccc3)o2)nn1` [Compound 8, 4-((5-phenyl–1,3,4-oxadiazol–2-ylthio)methyl)–1-(2-chlorophenyl)-1H–1,2,3-triazole] registered a melting point of 111 to 112 °C. This compound yielded an IC50 in the series on MCF-7 cells of 73.3 µM. Besides, in the series with HCT-116 cells (Homo sapiens, HCT-116, 72 h), the IC50 is > 100 µM. This compound yielded an IC50 in the series with HCT-116 cells of 108 µM.
`Clc1ccc(-n2cc(CSc3nnc(-c4ccccc4)o3)nn2)cc1` [Compound 9, 4-((5-phenyl–1,3,4-oxadiazol-2-ylthio)methyl)–1-(4-chlorophenyl)-1H–1,2,3-triazole] yielded a melting point of 200 to 202 °C. This compound also registered an IC50 in the series with MCF-7 cells of 34.4 µM. The compound also gave an IC50 in the series with HCT-116 cells (Homo sapiens, HCT-116, 72 h) of 36.7 µM.
Consider `Brc1cccc(-n2cc(CSc3nnc(-c4ccccc4)o3)nn2)c1` [Compound 10, 4-((5-phenyl–1,3,4-oxadiazol–2-ylthio)methyl)-1-(3-bromophenyl)-1H–1,2,3-triazole], for which the melting point was in the range of 146 to 148 °C. This compound also gave an IC50 in the series with MCF-7 cells of 25.9 µM. Further, the IC50 in the series with HCT-116 cells (Homo sapiens, HCT-116, 72 h) worked out at 32.7 µM.
The compound `O=[N+]([O-])c1ccc(-n2cc(CSc3nnc(-c4ccccc4)o3)nn2)cc1` [Compound 11, 4-((5-phenyl–1,3,4-oxadiazol–2-ylthio)methyl)–1-(4-nitrophenyl)-1H–1,2,3-triazole] had a melting point of 202 to 204 °C. 98.2 µM corresponded to half-maximal inhibition in the series on MCF-7 cells (IC50). Besides, in the series with HCT-116 cells (Homo sapiens, HCT-116, 72 h), the IC50 is > 100 µM. In the series with HCT-116 cells, this compound came in with an IC50 of 102 µM.
Turning to `c1ccc(-c2nnc(SCc3cn(-c4ccccc4)nn3)o2)cc1` [Compound 12, 4-((5-phenyl–1,3,4-oxadiazol–2-ylthio)methyl)-1-phenyl-1H–1,2,3-triazole], the 50% inhibitory concentration (IC50) in the series on MCF-7 cells is 5.8 µM; in the series with HCT-116 cells (Homo sapiens, HCT-116, 72 h), 14.8 µM; in series [1] (setting [2]), 2.52 µM; with HEK 293 cells, > 50 µM. In addition, the “fold activity compared to 5-fluorouracil, MCF-7” value with MCF-7 cells (ratio of IC50, MCF-7) is recorded as “four-fold”. The “fold activity compared to 5-fluorouracil, HCT-116” value with HCT-116 cells turned out to be 2.2 fold. Besides, in the series with HCT-116 cells, the “fold activity compared to tamoxifen, HCT-116” value was 1.7 fold. In series [1], the “fold activity compared to pemetrexed, TS” value is 2.6 fold.
The compound `COC(=O)c1ccccc1-n1cc(CSc2nnc(-c3ccccc3)o2)nn1` [Compound 13, Methyl 2-(4-((5-phenyl–1,3,4-oxadiazol-2-ylthio)methyl)-1H–1,2,3-triazol–1-yl)benzoate] yielded a melting point of 119 to 120 °C. The same compound came in with a concentration for half-maximal inhibition (IC50) in the series on MCF-7 cells of 1.26 µM. Further, in the series with MCF-7 cells (ratio of IC50, MCF-7), the “fold activity compared to tamoxifen, MCF-7” value is reported as “five times”. Also, in the series on HCT-116 cells (Homo sapiens, HCT-116, 72 h), half-maximal inhibition (IC50) was put at 17.3 µM. In the series with HCT-116 cells, the “fold activity compared to 5-fluorouracil, HCT-116” value stood at 1.9 fold and the “fold activity compared to tamoxifen, HCT-116” value worked out at 1.5 fold. In addition, the “fold activity compared to pemetrexed, TS” value in series [1] came out at 1.5 fold. Moreover, the IC50 in series [1] (setting [2]) turned out to be 4.38 µM. In addition, the IC50 in the series with HEK 293 cells is > 50 µM.
In turn, `O=C(O)c1ccccc1-n1cc(CSc2nnc(-c3ccccc3)o2)nn1` [Compound 14, 2-(4-((5-phenyl–1,3,4-oxadiazol–2-ylthio)methyl)-1H–1,2,3-triazol–1-yl)benzoic acid] gave a melting point of 119 to 120 °C. This compound returned an IC50 in the series on MCF-7 cells of 40.6 µM. Also, the IC50 with HCT-116 cells (Homo sapiens, HCT-116, 72 h) came to 46.8 µM.
In series [1], `Nc1nc2[nH]cc(CCc3ccc(C(=O)N[C@@H](CCC(=O)O)C(=O)O)cc3)c2c(=O)[nH]1` [PTX, pemetrexed, reference compound] came in with an IC50 of 6.75 µM.
